Among the test systems are HCT-116 colon; HOP-62 NSCLC; HS 578T breast; MALME-3M melanoma; NCI-H522 lung; OVCAR-5 ovarian; SK-MEL-28 melanoma; SK-OV-3 ovarian; TK-10 renal; UO-31 renal.
Common to all, as to assay: growth of human tumour cells (NCI), 48 h

The structures appear in SMILES notation.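 Protocol summary: plate cells (96-well), add compound at 5 concentrations, incubate 48 h, interpolate endpoints linearly. At the GI50, growth is halved. At the TGI there is no net growth.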 Some results are limits rather than exact numbers.

With `Brc1ccc(Br)nn1`, the GI50 was 1480 nM in the assay on HCT-116 colon; 4020 nM in the assay on HOP-62 NSCLC; 1750 nM in the assay with HS 578T breast; 1750 nM in the assay on MALME-3M melanoma; 243 nM in the assay with NCI-H522 lung; 11700 nM in the assay with OVCAR-5 ovarian. The GI50 in the assay on SK-MEL-28 melanoma was 1420 nM; with SK-OV-3 ovarian, 8640 nM; in the assay on TK-10 renal, 2560 nM; in the assay on UO-31 renal, 2620 nM. In addition, the TGI is 2840 nM in the assay with HCT-116 colon; 10100 nM in the assay with HOP-62 NSCLC; 28100 nM with HS 578T breast; 3700 nM with MALME-3M melanoma; 928 nM in the assay with NCI-H522 lung; 24800 nM in the assay with OVCAR-5 ovarian. Moreover, the TGI is 2760 nM in the assay with SK-MEL-28 melanoma, 20800 nM with SK-OV-3 ovarian, 6370 nM in the assay on TK-10 renal and 14900 nM in the assay on UO-31 renal.
On to `CC(=O)OCC(=O)C1(O)C(C)CC2C3C=C(C)C4=Cc5c(cnn5-c5ccccc5)CC4(C)C3C(O)CC21C` (stereo not drawn), for which the GI50 with HCT-116 colon is 1450 nM; with HOP-62 NSCLC, 1350 nM; in the assay with HS 578T breast, 1170 nM; in the assay on MALME-3M melanoma, 1500 nM; in the assay on NCI-H522 lung, 1970 nM; in the assay on OVCAR-5 ovarian, 1100 nM. Moreover, the GI50 with SK-MEL-28 melanoma was 1410 nM; with TK-10 renal, 2130 nM; in the assay on UO-31 renal, 2470 nM. Also, the TGI in the assay on HCT-116 colon stood at 3120 nM; in the assay with HOP-62 NSCLC it was 3520 nM; with HS 578T breast, 4750 nM; in the assay with MALME-3M melanoma, 5200 nM; in the assay on NCI-H522 lung it was 5240 nM; in the assay on OVCAR-5 ovarian, 3920 nM. Besides, the TGI in the assay on SK-MEL-28 melanoma came out at 3010 nM; with SK-OV-3 ovarian it was 5710 nM; with TK-10 renal it was 9730 nM; in the assay on UO-31 renal it was 8430 nM.
`COc1cc(C2C(C#N)=C(N)Oc3cc4c(cc32)OCO4)cc2c1OCO2` (stereo not drawn): the GI50 with HCT-116 colon was 455 nM; in the assay on HOP-62 NSCLC, 393 nM; in the assay with HS 578T breast, 328 nM; in the assay on MALME-3M melanoma it was 2670 nM; in the assay on NCI-H522 lung, 92.6 nM; with OVCAR-5 ovarian, 1290 nM. The GI50 in the assay on SK-MEL-28 melanoma is 1570 nM; in the assay on SK-OV-3 ovarian it was 439 nM; in the assay on TK-10 renal, 2360 nM; in the assay on UO-31 renal, 653 nM. For the same molecule, the TGI was over 100000 nM with HCT-116 colon; over 100000 nM with HOP-62 NSCLC; over 100000 nM in the assay with HS 578T breast; over 100000 nM in the assay on MALME-3M melanoma; 2720 nM in the assay with NCI-H522 lung; over 100000 nM with OVCAR-5 ovarian. Moreover, the values for the TGI in the assay on SK-MEL-28 melanoma, in the assay on TK-10 renal and in the assay on UO-31 renal were over 100000 nM, over 79800 nM and over 100000 nM, respectively.
For the molecule `C[C@@H](Oc1cc(-c2cnn(C3CC4(CCCNC4)C3)c2)cnc1N)c1c(Cl)ccc(F)c1Cl` (stereo partly drawn), the GI50 in the assay with HCT-116 colon was 741 nM; in the assay with HOP-62 NSCLC it was 1210 nM; in the assay with HS 578T breast, 1630 nM; in the assay on MALME-3M melanoma, 1300 nM; in the assay on NCI-H522 lung, 1350 nM; with OVCAR-5 ovarian, 1290 nM. The GI50 in the assay on SK-MEL-28 melanoma is 1540 nM; in the assay with SK-OV-3 ovarian it was 2610 nM; with TK-10 renal, 2020 nM; with UO-31 renal, 1760 nM. Moreover, the TGI in the assay with HCT-116 colon was 2230 nM; in the assay with HOP-62 NSCLC it was 4920 nM; with HS 578T breast it was 4470 nM; with MALME-3M melanoma it was 3120 nM; in the assay on NCI-H522 lung, 2790 nM; in the assay with OVCAR-5 ovarian it was 4930 nM. Further, the TGI was 3030 nM with SK-MEL-28 melanoma, 6960 nM with SK-OV-3 ovarian, 5470 nM in the assay on TK-10 renal and 3900 nM in the assay with UO-31 renal.
As to `CNCCOc1nc2c3cnccc3cc(-c3cc(OC)c(OC)c(OC)c3)c2c2ccncc12`, the GI50 in the assay on HCT-116 colon was under 14.7 nM; in the assay on HOP-62 NSCLC, 22.4 nM; in the assay on HS 578T breast it was 139 nM; in the assay on MALME-3M melanoma, 39.2 nM; in the assay on NCI-H522 lung, 66.6 nM; with OVCAR-5 ovarian it was 40.3 nM. Further, the GI50 in the assay with SK-MEL-28 melanoma is 125 nM; with SK-OV-3 ovarian it was 32.3 nM; with TK-10 renal, 68.6 nM; with UO-31 renal it was 30.2 nM. Besides, the TGI with HCT-116 colon was 175 nM; in the assay on HOP-62 NSCLC, 166 nM; in the assay with HS 578T breast, 747 nM; in the assay on MALME-3M melanoma, 194 nM; with NCI-H522 lung, 661 nM; in the assay with OVCAR-5 ovarian it was 426 nM. Besides, the TGI came to 525 nM in the assay with SK-MEL-28 melanoma, 185 nM in the assay with SK-OV-3 ovarian, 366 nM with TK-10 renal and 156 nM in the assay with UO-31 renal.
With `COc1ccc(C2C3=C(COC3=O)N(CCO)c3cc4c(cc32)OCCO4)cc1OC` (stereo not drawn), the GI50 was 1960 nM in the assay on HCT-116 colon; 9580 nM in the assay with HOP-62 NSCLC; 1440 nM with HS 578T breast; over 50000 nM in the assay on MALME-3M melanoma; 270 nM in the assay with NCI-H522 lung; 18400 nM with OVCAR-5 ovarian. Moreover, the GI50 in the assay on SK-MEL-28 melanoma is over 50000 nM; in the assay with SK-OV-3 ovarian, 1980 nM; in the assay with TK-10 renal, over 10200 nM; with UO-31 renal, 4090 nM. Besides, the TGI was over 50000 nM in the assay on HCT-116 colon; over 50000 nM in the assay with HOP-62 NSCLC; over 50000 nM with HS 578T breast; over 50000 nM with MALME-3M melanoma; 1380 nM in the assay with NCI-H522 lung; over 50000 nM with OVCAR-5 ovarian. The TGI was over 50000 nM with SK-MEL-28 melanoma, over 50000 nM with SK-OV-3 ovarian, over 36300 nM in the assay on TK-10 renal and over 50000 nM with UO-31 renal.
On to `N#Cc1c(Oc2ccc(F)c(NC(=O)Cc3cccc(C(F)(F)F)c3)c2)ccc2nc(NC(=O)C3CC3)sc12`, for which the GI50 is 251 nM in the assay on HCT-116 colon; 472 nM in the assay on HOP-62 NSCLC; 534 nM with HS 578T breast; 10.1 nM in the assay with MALME-3M melanoma; 942 nM in the assay on NCI-H522 lung; 412 nM in the assay on OVCAR-5 ovarian. Moreover, the GI50 is 29.2 nM in the assay on SK-MEL-28 melanoma, 1930 nM with SK-OV-3 ovarian, 1860 nM in the assay on TK-10 renal and 553 nM in the assay on UO-31 renal. Moreover, the TGI is over 100000 nM in the assay with HCT-116 colon; over 100000 nM with HOP-62 NSCLC; 3330 nM in the assay on HS 578T breast; 47.6 nM with MALME-3M melanoma; over 25000 nM with NCI-H522 lung; over 100000 nM with OVCAR-5 ovarian. Besides, the TGI was over 100000 nM with SK-MEL-28 melanoma, over 100000 nM with SK-OV-3 ovarian, over 100000 nM in the assay on TK-10 renal and over 24200 nM in the assay on UO-31 renal.
`C=C=[CH][Sn]([c]1ccccc1)([c]1ccccc1)[c]1ccccc1`: the GI50 is 866 nM in the assay on HCT-116 colon; 2450 nM in the assay with HOP-62 NSCLC; 2060 nM with HS 578T breast; 1740 nM in the assay with MALME-3M melanoma; 1360 nM in the assay on NCI-H522 lung; 1460 nM in the assay with OVCAR-5 ovarian. Further, the GI50 was 1710 nM in the assay on SK-MEL-28 melanoma, 2150 nM in the assay on SK-OV-3 ovarian, 1650 nM in the assay on TK-10 renal and 1440 nM in the assay with UO-31 renal. Further, the TGI with HCT-116 colon was found to be 2270 nM; in the assay on HOP-62 NSCLC, 5260 nM; in the assay with HS 578T breast it was 7370 nM; in the assay with MALME-3M melanoma, 3570 nM; with NCI-H522 lung it was 2850 nM; with OVCAR-5 ovarian, 2900 nM. Further, the TGI with SK-MEL-28 melanoma is 3340 nM; in the assay with SK-OV-3 ovarian, 4730 nM; in the assay on TK-10 renal it was 3100 nM; with UO-31 renal, 3180 nM.
For `CC(C)N(C[C@H]1O[C@@H](n2cnc3c(N)ncnc32)[C@H](O)[C@@H]1O)C1CC(CCc2nc3ccc(C(C)(C)C)cc3[nH]2)C1` (stereo partly drawn), the GI50 with HCT-116 colon is over 68000 nM; with HOP-62 NSCLC it was over 100000 nM; in the assay with HS 578T breast, over 76500 nM; in the assay on MALME-3M melanoma it was 20000 nM; in the assay on NCI-H522 lung, over 75900 nM; in the assay on OVCAR-5 ovarian, over 46900 nM. Moreover, the GI50 was over 39300 nM with SK-MEL-28 melanoma, over 100000 nM with SK-OV-3 ovarian, over 100000 nM in the assay on TK-10 renal and over 100000 nM in the assay with UO-31 renal. For the same molecule, the TGI was over 100000 nM with HCT-116 colon; over 100000 nM with HOP-62 NSCLC; over 100000 nM with HS 578T breast; over 60800 nM with MALME-3M melanoma; over 100000 nM in the assay with NCI-H522 lung; over 100000 nM in the assay on OVCAR-5 ovarian. In addition, the TGI in the assay on SK-MEL-28 melanoma was over 54100 nM; in the assay with SK-OV-3 ovarian, over 100000 nM; in the assay on TK-10 renal, over 100000 nM; in the assay on UO-31 renal, over 100000 nM.
On to `CON`, for which the GI50 in the assay with HCT-116 colon, in the assay with HOP-62 NSCLC, in the assay on HS 578T breast, in the assay with MALME-3M melanoma, with NCI-H522 lung and in the assay with OVCAR-5 ovarian was over 100000 nM in each case. Also, the GI50 in the assay on SK-MEL-28 melanoma, with SK-OV-3 ovarian, in the assay on TK-10 renal and with UO-31 renal was over 100000 nM each time. In addition, the TGI with HCT-116 colon, in the assay on HOP-62 NSCLC, in the assay on HS 578T breast, with MALME-3M melanoma, in the assay with NCI-H522 lung and in the assay with OVCAR-5 ovarian was over 100000 nM each time. For the same molecule, the TGI with SK-MEL-28 melanoma, in the assay with SK-OV-3 ovarian, in the assay on TK-10 renal and in the assay with UO-31 renal was over 100000 nM each time.
Consider `Cc1c(N2C(=O)/C(=C\c3ccc(N(C)C)cc3)N=C2c2ccccc2)c(=O)n(-c2ccccc2)n1C`, for which the GI50 in the assay on HCT-116 colon was 33700 nM; with HOP-62 NSCLC it was over 100000 nM; in the assay on HS 578T breast, over 100000 nM; in the assay with MALME-3M melanoma, over 100000 nM; with NCI-H522 lung it was 67800 nM; in the assay with OVCAR-5 ovarian it was over 90100 nM. In addition, the GI50 in the assay with SK-MEL-28 melanoma was over 100000 nM; in the assay with SK-OV-3 ovarian, over 100000 nM; in the assay with TK-10 renal it was over 100000 nM; with UO-31 renal, 40600 nM. The TGI with HCT-116 colon, in the assay on HOP-62 NSCLC, in the assay with HS 578T breast, in the assay on MALME-3M melanoma, in the assay with NCI-H522 lung and in the assay with OVCAR-5 ovarian was over 100000 nM throughout. Besides, the TGI in the assay with SK-MEL-28 melanoma, with SK-OV-3 ovarian, in the assay on TK-10 renal and with UO-31 renal was over 100000 nM each time.
